# In patent EP0497921B1, “METHOD FOR INHIBITING ENZYMATIC SYNTHESIS OF NUCLEIC ACIDS USING ISOPSORALENS” (ISAACS, Stephen T., priority 1989, dated 1991):
# Assays:
# [1] = tested on: Taq I DNA polymerase; assay: Primer extension on site-specific 71-mer monoadduct template; assay type: biochemical, Thermus aquaticus; conditions: for Taq polymerase extension on 71-mer monoadduct template / position of the Taq polymerase stop within the 71-mer: 55°C, PAGE, autoradiography; for Taq polymerase extension on 71-mer monoadduct template: 0.5, 1.0, 5.0 mins
# Protocol: In this experiment, monoadducted 71-mers (as well as unmodified 71-mers) were used in template-dependent enzymatic extension. AMIP, AMDMIP, and MIP 71-mer monoadducts were made as in Example 17. Extension was carried out as in Example 18 except that in this experiment, Taq I DNA polymerase, a thermostable DNA polymerase isolated from Thermus aquaticus (Stratagene, Inc., La Jolla, CA) was assessed for its ability to read past isopsoralens.
# The reaction mixture was in 80 µl total volume and comprised 1 x Taq buffer, 200 µM each of dNTP's, 0.05 units of Taq per µl of reaction volume; 1 x 10^-9 M in 71-mer MA; 1 x 10^-8 M in ^32P-labelled SK-39. Each reaction was set up with everything except Taq polymerase. The samples were initially heated to 95°C for 5 mins, then incubated at 55°C for 3 mins. The extension reaction was initiated by addition of Taq polymerase. At the indicated time points (0.5, 1.0, 5.0 mins), 20 µl of the reaction mix was removed to a tube containing 1 µl of 0.5 M EDTA to stop the reaction. All products were analyzed on a 20% polyacrylamide, 7 M urea gel followed by autoradiography.
# This experiment investigated whether blocking of Taq polymerase by monoadducts is complete or whether monoadducts can be bypassed by the enzyme. In order to view the process of bypass synthesis, it is necessary to cycle the extension reaction of the primer with the 71-mer templates. Cycling in this case consists of mixing the primer with the 71-mer template, adding Taq polymerase and appropriate reagents, extending, heating to induce strand separation, reannealing of the primer to the 71-mer template, extending again, and subsequent stand separation. This process can be repeated as necessary. During this process, only the complement of the 71-mer template is being synthesized. It is accumulating in a linear fashion with the number of thermal cycles (in contrast to PCR where both strands are being synthesized and accumulate geometrically).
# The templates and reaction conditions were as in Example 19 above except that three samples were used for each monoadduct and each sample was tested under different conditions: • Samples (1): one sample for each monoadduct was used to carry out extension at 55°C as in Example 43; • Samples (2): one sample for each monoadduct was used to carry out extension by the following series of steps: denaturing at 95°C; incubating for 30 seconds at 55°C; adding Taq polymerase for 3 minutes at 550C; cooling the reaction for 1 minute at 7°C; stopping the reaction with EDTA for one minute at 95°C: • Samples (3): one sample for each monoadduct was used to carry out extension by repeating the following series of steps nine times: denaturing at 95°C; incubating for 30 seconds at 55°C; adding Taq polymerase for 3 minutes at 55°C; cooling the reaction for 1 minute at 7°C. At the end, the reaction is stopped with EDTA for one minute at 95°C.
# To investigate this question further, a new 5-MIP monoadducted 71-mer was prepared by repurification of the HPLC purified 5-MIP monoadducted 15-mer by PAGE. In this way, more of the non-monoadducted 15-mer was removed prior to ligation. The purified 71-mer was then used as template in an extension experiment as described in Example 20. After 10 cycles, there was still evidence of extension product (Figure 34).
# Monoadducted 71-mer was constructed as described, but for HMT. Extension was carried out and analyzed as before on PAGE. […] Full length 71-mer is not made and a shorter strand corresponding to the position of the HMT adduct was made.
# [2] = tested on: calf thymus DNA; assay: Covalent photobinding of tritiated isopsoralens (scintillation counting); assay type: binding; conditions: for actual concentrations obtained empirically: nominal concentration of 100 µg/ml in calf thymus DNA / 1 x TE, counted after sitting overnight at room temperature
# Protocol: Figure 17 can again be referred to as a flow chart schematically showing the manner in which covalent binding was measured for the compounds synthesized by the methods of the present invention. ^3H-AMIP (3.1 x 10^5 cpm/µg), ^3H-AMDMIP (2.2 x 10^5 cpm/µg), and ^3H-MIP (2.1 x 10^5 cpm/µg) were added to 300 µl of calf thymus DNA (Sigma) in 1 x TE buffer. All of the isopsoralen compounds were added at a nominal concentration of 100 µg/ml. However, actual concentrations obtained empirically (counted after sitting overnight at room temperature) were: ^3H-AMIP (105 µg/ml), ^3H-AMDMIP (115 µg/ml), and ^3H-MIP ([…]).
# To assess binding, three samples were prepared for each compound; two were irradiated (15 minutes at 25°C with the CE-I device) while one was unirradiated as a control. Following irradiation, the samples were extracted four times with CHCl3 then precipitated twice. The final pellet was brought up in 1 ml of 1 x TE buffer and resuspended by shaking at 40°C overnight. 50 µl of each sample was then diluted to 0.5 mls with H20. The concentration of DNA was determined by UV absorption (A260) and the amount of covalently bound isopsoralen ("adduct") was determined by scintillation counting (3 x 100 µl aliquots). From these numbers, the following binding ratios (adducts: DNA base pair) were determined: […]
Compound,Taq polymerase extension on 71-mer monoadduct template [1],position of the Taq polymerase stop within the 71-mer [1],actual concentrations obtained empirically [2] [µg/mL],modification density relative to that provided by AMDMIP ([2]; photobinding at the same concentration) [%],"extension products truncated ([1]; monoadducted 15-mer repurified by PAGE before ligation, after 10 cycles) [%]","full length extension product as share of the total extension products ([1]; monoadducted 15-mer repurified by PAGE before ligation, after 10 cycles, band excised and counted) [%]"
"4'-Aminomethyl-4,5'-dimethylisopsoralen [AMDMIP]",stops at positions that are shorter than the full length 71-mer product,a different stop altogether,115,,,
5-Aminomethylisopsoralen [AMIP],stops at positions that are shorter than the full length 71-mer product,multiple stops,105,43,,
"Cc1cc2occc2c2oc(=O)ccc12 [MIP, 5-Methylisopsoralen]",stops at positions that are shorter than the full length 71-mer product,at about the position of the TpA sequence in the 10-mer,< 10,,97.7,2.3
